The text below walks through data of US10913736B2 (UNIVERSITY OF WASHINGTON, priority 2014, dated 2021).

Usually IC50 stands for the concentration at which inhibition is half-maximal. Higher therefore signals weaker potency. One may read the EC50 as the concentration giving half of the maximal effect.

The target in one test is MetRS (T. brucei) (Trypanosoma brucei brucei, UniProt Q38C91). Nature of the test: MetRS (T. brucei) ATP depletion assay using Kinase-Glo. The test is classed as biochemical.
For the next test, the system named is T. brucei. Nature of the test: Growth inhibition assay of T. brucei cell cultures (Alamar Blue, 48 h). To be noted: Trypanosoma brucei; read-out: B) T. brucei EC50. In kind it is cell-based.

A value given as a limit tells only on which side of the number the result lay.

Chain of MetRS (T. brucei) (Q38C91 entry or part of it): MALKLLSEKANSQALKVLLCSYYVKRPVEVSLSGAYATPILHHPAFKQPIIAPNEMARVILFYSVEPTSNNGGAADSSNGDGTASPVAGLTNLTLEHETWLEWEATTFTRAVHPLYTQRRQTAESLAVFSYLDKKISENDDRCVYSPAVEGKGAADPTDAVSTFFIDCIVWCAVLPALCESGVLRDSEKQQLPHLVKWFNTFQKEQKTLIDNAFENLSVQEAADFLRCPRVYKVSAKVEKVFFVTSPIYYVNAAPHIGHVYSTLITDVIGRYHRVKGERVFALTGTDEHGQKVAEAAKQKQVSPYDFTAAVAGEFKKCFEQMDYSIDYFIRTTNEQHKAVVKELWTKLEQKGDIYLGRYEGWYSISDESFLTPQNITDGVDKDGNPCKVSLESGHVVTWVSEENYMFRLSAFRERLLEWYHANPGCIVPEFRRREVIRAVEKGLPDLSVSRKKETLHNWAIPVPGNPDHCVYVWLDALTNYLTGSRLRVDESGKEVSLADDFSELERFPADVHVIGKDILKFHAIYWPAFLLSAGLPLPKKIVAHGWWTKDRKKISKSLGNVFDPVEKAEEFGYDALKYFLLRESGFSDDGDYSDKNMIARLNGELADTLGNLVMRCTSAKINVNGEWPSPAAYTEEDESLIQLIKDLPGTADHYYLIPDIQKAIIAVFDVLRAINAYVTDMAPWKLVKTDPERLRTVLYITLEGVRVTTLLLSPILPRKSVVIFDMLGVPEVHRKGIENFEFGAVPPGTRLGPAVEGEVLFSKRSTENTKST

In turn, `Clc1cc(Cl)cc(CN2CCC[C@H](c3nc4nc(Cl)ccc4[nH]3)C2)c1` [Compound 1868, (S)-5-chloro-2-(1-(3,5-dichlorobenzyl)piperidin-3-yl)-1H-imidazo[4,5-b]pyridine] registered an IC50 at MetRS (T. brucei) of 0.077 µM. Moreover, the EC50 with T. brucei came to 1.08 µM.
In turn, `Clc1ccc(CN2CCC[C@H](c3nc4nc(Cl)ccc4[nH]3)C2)c(Cl)c1` [Compound 1869, (S)-5-chloro-2-(1-(2,4-dichlorobenzyl)piperidin-3-yl)-1H-imidazo[4,5-b]pyridine] showed a half-maximal inhibitory concentration (IC50) at MetRS (T. brucei) of 0.052 µM. The EC50 in the test with T. brucei came to 1.7 µM.
With `COc1cc(CN2CCC[C@H](c3nc4nc(Cl)ccc4[nH]3)C2)cc(OC)c1` [Compound 1872, (S)-5-chloro-2-(1-(3,5-dimethoxybenzyl)piperidin-3-yl)-1H-imidazo[4,5-b]pyridine], the 50% inhibitory concentration (IC50) on MetRS (T. brucei) was more than 10 µM. Further, the EC50 with T. brucei was found to be 8.34 µM.
With `O=C(Cc1cc(Cl)cc(Cl)c1)NCc1nc2ccc(Br)cc2[nH]1` [Compound 1873, N-[(6-bromo-1H-1,3-benzodiazol-2-yl)methyl]-2-(3,5-dichlorophenyl)acetamide], the midpoint of inhibition against MetRS (T. brucei), the IC50, lay at 0.098 µM. The EC50 in the test with T. brucei was 5.5 µM.
The like results for `O=C(Cc1ccc(Cl)cc1Cl)NCc1nc2ccc(Br)cc2[nH]1` [Compound 1874, N-[(6-bromo-1H-1,3-benzodiazol-2-yl)methyl]-2-(2,4-dichlorophenyl)acetamide] were, in that order, 0.051 µM and 3.65 µM.
The like results for `O=C(Cc1ccc(Cl)cc1Cl)NCc1nc2ccc(Cl)nc2[nH]1` [Compound 1876, N-({5-chloro-3H-imidazo[4,5-b]pyridin-2-yl}methyl)-2-(2,4-dichlorophenyl)acetamide] were, in that order, 0.375 µM and more than 20 µM.
The like results for `O=C(Cc1cc(Cl)cc(Cl)c1)NCc1nc2ncc(Cl)cc2[nH]1` [Compound 1877, N-({6-chloro-1H-imidazo[4,5-b]pyridin-2-yl}methyl)-2-(3,5-dichlorophenyl)acetamide] were, in that order, 0.191 µM and 8.68 µM.
As for `O=C(Cc1ccc(Cl)cc1Cl)NCc1nc2ncc(Cl)cc2[nH]1` [Compound 1878, N-({6-chloro-1H-imidazo[4,5-b]pyridin-2-yl}methyl)-2-(2,4-dichlorophenyl)acetamide], the IC50 against MetRS (T. brucei) amounted to 0.195 µM. Besides, in the test on T. brucei, the EC50 was determined as 7.52 µM.
The like results for `O=C(Cc1cc(Cl)cc(Cl)c1)NCc1nc2cnc(Cl)cc2[nH]1` [Compound 1879, N-({6-chloro-1H-imidazo[4,5-c]pyridin-2-yl}methyl)-2-(3,5-dichlorophenyl)acetamide] were, in that order, 0.416 µM and 11.2 µM.
The like results for `O=C(Cc1ccc(Cl)cc1Cl)NCc1nc2cnc(Cl)cc2[nH]1` [Compound 1880, N-({6-chloro-1H-imidazo[4,5-c]pyridin-2-yl}methyl)-2-(2,4-dichlorophenyl)acetamide] were, in that order, 0.214 µM and 8.4 µM.
`COc1ccc(Oc2nc(O)nc(NCc3nc4ccc(F)nc4[nH]3)n2)c(Cl)c1` [Compound 1885, 4-(2-chloro-4-methoxyphenoxy)-6-[({5-fluoro-3H-imidazo[4,5-b]pyridin-2-yl}methyl)amino]-1,3,5-triazin-2-ol] had an IC50 at MetRS (T. brucei) of 1.51 µM. Also, in the test with T. brucei, the EC50 is 5.87 µM.
The like results for `CC(=O)N(Cc1cc(Cl)cc(Cl)c1)C1CCCN(c2nc3nc(F)ccc3[nH]2)C1` (stereo not drawn) [Compound 1887, N-(3,5-dichlorobenzyl)-N-(1-(5-fluoro-1H-imidazo[4,5-b]pyridin-2-yl)piperidin-3-yl)acetamide] were, in that order, 6.66 µM and more than 20 µM.
In turn, `O=C(NCc1nc2ccc(Cl)nc2[nH]1)Nc1cc(Cl)cc(Cl)c1` [Compound 1890, 1-((5-chloro-1H-imidazo[4,5-b]pyridin-2-yl)methyl)-3-(3,5-dichlorophenyl)urea] came in with a half-inhibitory concentration (IC50) on MetRS (T. brucei) of 0.078 µM. The EC50 with T. brucei stood at 6.22 µM.
For `O=C(NCc1nc2nc(Cl)ccc2[nH]1)Nc1ccc(Cl)cc1Cl` [Compound 1891, 3-({5-chloro-3H-imidazo[4,5-b]pyridin-2-yl}methyl)-1-(2,4-dichlorophenyl)urea], at MetRS (T. brucei), it took 3.9 µM to reach half-maximal inhibition (IC50). In addition, in the test with T. brucei, the EC50 was more than 20 µM.
The like results for `Clc1ccc(CCNCc2nc3nc(Cl)ccc3[nH]2)c(Cl)c1` [Compound 1892, ({5-chloro-3H-imidazo[4,5-b]pyridin-2-yl}methyl)[2-(2,4-dichlorophenyl)ethyl]amine] were, in that order, 0.033 µM and 1.55 µM.
Consider `CN(CCNCc1cc(Cl)cc(Cl)c1)c1nc2nc(Cl)c(Br)cc2[nH]1` [Compound 1894, 6-bromo-5-chloro-N-(2-{[(3,5-dichlorophenyl)methyl]amino}ethyl)-N-methyl-3H-imidazo[4,5-b]pyridin-2-amine], for which the half-maximal inhibitory concentration (IC50) at MetRS (T. brucei) stood at 0.179 µM. Moreover, the EC50 in the test on T. brucei was determined as 2.89 µM.
The like results for `Clc1cc(Cl)cc(CNCCSc2nc3nc(Cl)ccc3[nH]2)c1` [Compound 1896, [2-({5-chloro-1H-imidazo[4,5-b]pyridin-2-yl}sulfanyl)ethyl][(3,5-dichlorophenyl)methyl]amine] were, in that order, 1.05 µM and 1.4 µM.
The like results for `Clc1cc(Cl)cc(CO[C@H]2CCCN(c3nc4nc(Cl)ccc4[nH]3)C2)c1` [Compound 1898] were, in that order, 0.196 µM and 8.8 µM.
The like results for `CC(=O)N(Cc1cc(Cl)cc(Cl)c1)[C@H]1CCCN(c2nc3nc(F)ccc3[nH]2)C1` [Compound 1901, (S)—N-(3,5-dichlorobenzyl)-N-(1-(5-fluoro-1H-imidazo[4,5-b]pyridin-2-yl)piperidin-3-yl)acetamide] were, in that order, 0.692 µM and 5.1 µM.
`Clc1cc(Cl)c(Cl)c(CN[C@H]2CCCN(c3nc4nc(Cl)ccc4[nH]3)C2)c1` [Compound 1902, (S)-1-(5-chloro-1H-imidazo[4,5-b]pyridin-2-yl)-N-(2,3,5-trichlorobenzyl)piperidin-3-amine] showed an IC50 at MetRS (T. brucei) of 0.018 µM. Further, in the test on T. brucei, the EC50 worked out at 0.354 µM.
On MetRS (T. brucei), `Clc1cc(Cl)cc(CNC2CCCCN(c3nc4nc(Cl)ccc4[nH]3)C2)c1` (stereo not drawn) [Compound 1903, 1-(5-chloro-1H-imidazo[4,5-b]pyridin-2-yl)-N-(3,5-dichlorobenzyl) azepan-3-amine] returned an IC50 of 0.682 µM. Also, the EC50 in the test with T. brucei turned out to be 1.81 µM.
`Clc1cc(Cl)cc(CO[C@H]2CCCN(c3nc4nc(Cl)c(Br)cc4[nH]3)C2)c1` [Compound 1904, (S)-6-bromo-5-chloro-2-(3-((3,5-dichlorobenzyl)oxy)piperidin-1-yl)-1H-imidazo[4,5-b]pyridine]: the IC50 against MetRS (T. brucei) is more than 10 µM. In addition, in the test with T. brucei, the EC50 is more than 20 µM.
The like results for `Clc1cc(Cl)c(Cl)c(CN[C@H]2CCCN(c3nc4nc(Cl)c(Br)cc4[nH]3)C2)c1` [Compound 1905, (S)-1-(6-bromo-5-chloro-1H-imidazo[4,5-b]pyridin-2-yl)-N-(2,3,5-trichlorobenzyl)piperidin-3-amine] were, in that order, 4.31 µM and more than 20 µM.
`OC1N[C@@H](Cc2ccc(Cl)cc2Cl)C(O)N1Cc1nc2ccccc2[nH]1` (stereo partly drawn) [Compound 1906, (5S)-3-((H-benzo[d]imidazol-2-yl)methyl)-5-(2,4-dichlorobenzyl)imidazolidine-2,4-diol] yielded an IC50 against MetRS (T. brucei) of 2.94 µM. Besides, in the test on T. brucei, the EC50 turned out to be 6.23 µM.
Molecule `COc1c(Br)cc(Br)cc1CN[C@H]1CCCN(c2nc3nc(Cl)ccc3[nH]2)C1` [Compound 1909, (S)-1-(5-chloro-1H-imidazo[4,5-b]pyridin-2-yl)-N-(3,5-dibromo-2-methoxybenzyl)piperidin-3-amine] had an IC50 against MetRS (T. brucei) of 0.02 µM. Also, in the test on T. brucei, the EC50 was found to be 0.334 µM.
Molecule `Clc1cc(Cl)cc(CNCC2CCN2c2nc3nc(Cl)ccc3[nH]2)c1` (stereo not drawn) [Compound 1915, 1-(1-(5-chloro-1H-imidazo[4,5-b]pyridin-2-yl)azetidin-2-yl)-N-(3,5-dichlorobenzyl)methanamine] displayed an IC50 against MetRS (T. brucei) of 0.17 µM. For the same molecule, in the test with T. brucei, the half-maximal effective concentration (EC50) was 3.1 µM.
With `COc1ccc(Oc2cccc(NCCc3nc4ccccc4[nH]3)n2)c(Cl)c1` [Compound 1918, N-[2-(1H-1,3-benzodiazol-2-yl)ethyl]-6-(2-chloro-4-methoxyphenoxy)pyridin-2-amine], the IC50 on MetRS (T. brucei) stood at 1.11 µM. For the same molecule, the EC50 in the test on T. brucei is 9.56 µM.
The like results for `CCOc1c(Cl)cc(Cl)cc1CN[C@H]1CCCN(c2nc3nc(Cl)ccc3[nH]2)C1` [Compound 1920, (S)-1-(5-chloro-1H-imidazo[4,5-b]pyridin-2-yl)-N-(3,5-dichloro-2-ethoxybenzyl)piperidin-3-amine] were, in that order, 0.016 µM and 0.111 µM.
For the molecule `Clc1cc(Cl)cc(NC[C@H]2CCCN(c3nc4nc(Cl)ccc4[nH]3)C2)c1` [Compound 1922, (R)-3,5-dichloro-N-((1-(5-chloro-1H-imidazo[4,5-b]pyridin-2-yl)piperidin-3-yl)methyl)aniline], on MetRS (T. brucei), half-maximal inhibition (IC50) was put at 0.14 µM. Moreover, the EC50 with T. brucei came out at 2.76 µM.
The like results for `COc1ccc(Oc2cccc(NCc3nc4ccccc4[nH]3)n2)c(Cl)c1` [Compound 1924, N-((1H-benzo[d]imidazol-2-yl)methyl)-6-(2-chloro-4-methoxyphenoxy)pyridin-2-amine] were, in that order, 0.165 µM and 3.28 µM.
The like results for `CCCOc1c(Cl)cc(Cl)cc1CN[C@H]1CCCN(c2nc3nc(Cl)ccc3[nH]2)C1` [Compound 1927, (S)-1-(5-chloro-1H-imidazo[4,5-b]pyridin-2-yl)-N-(3,5-dichloro-2-propoxybenzyl)piperidin-3-amine] were, in that order, 0.047 µM and 0.827 µM.
The like results for `C=CCOc1c(Cl)cc(Cl)cc1CN[C@H]1CCCN(c2nc3nc(Cl)ccc3[nH]2)C1` [Compound 1928, (S)—N-(2-(allyloxy)-3,5-dichlorobenzyl)-1-(5-chloro-1H-imidazo[4,5-b]pyridin-2-yl)piperidin-3-amine] were, in that order, 0.021 µM and 0.326 µM.
Molecule `Clc1cc(Cl)c(OCC2CC2)c(CN[C@H]2CCCN(c3nc4nc(Cl)ccc4[nH]3)C2)c1` [Compound 1929, (S)-1-(5-chloro-1H-imidazo[4,5-b]pyridin-2-yl)-N-(3,5-dichloro-2-(cyclopropylmethoxy)benzyl)piperidin-3-amine] gave an IC50 against MetRS (T. brucei) of 0.029 µM. Further, the EC50 in the test with T. brucei came out at 0.511 µM.
